Holding throughout (test): DTP human tumour cell line panel, 48 h
Assay [1] deals with MCF7 breast.
In assay [2] the test system is UACC-257 melanoma.
Assay [3] concerns CCRF-CEM leukemia.
Assay [4] concerns BT-549 breast.
For assay [5], the system named is M14 melanoma.
The test system of assay [6] is EKVX NSCLC.
Assay [7] deals with SF-268 CNS.
Assay [8] deals with MDA-MB-231 breast.
The test system of assay [9] is HCT-116 colon.
Assay [10] has as its system HCC-2998 colon.

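Results reflect a 48-hour exposure of cells in 96-well plates to compound at five concentrations. TGI marks complete inhibition of growth.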

Usually TGI stands for the concentration giving total growth inhibition. High values mean lower sensitivity of the cells, low ones greater sensitivity of the cells. Consider `Cc1nc2sc3ccccc3n2c(=O)c1N=Nc1ccc(Cl)cc1`, for which the TGI in assay [1], in assay [2], in assay [3], in [4], in assay [5] and in [6] was above 100 µM throughout. The TGI in assay [7], in [8] and in assay [9] was above 100 µM throughout.

As to `COc1ccc(NS(=O)(=O)c2ccc(NC(NC(=O)CC(C)C)(C(F)(F)F)C(F)(F)F)cc2)nn1`, the TGI in assay [1], in [10], in assay [2], in [3], in assay [4] and in assay [5] was above 100 µM throughout. The TGI in assay [6], in [7], in [8] and in assay [9] was above 100 µM in each case.

For the compound `COc1nc2nccnc2c(=O)n1C`, the TGI in assay [1], in [10], in assay [2], in assay [3], in assay [4] and in assay [5] was above 10 µM in each case. Besides, the concentration for total growth inhibition (TGI) in assay [6], in [7], in assay [8] and in [9] was above 10 µM each time.

Consider `COc1ccc(/C=C2\N=C(SC)NC2=O)cc1`, for which the TGI in assay [1], in [10], in [3], in assay [4], in [5] and in [6] was above 100 µM throughout. Moreover, the total growth inhibition concentration (TGI) in assay [7], in [8] and in assay [9] was above 100 µM in each case.

`NC(CCC(=O)NC(CSCC1C(=O)Nc2ccccc21)C(=O)NCC(=O)O)C(=O)O` (stereo unspecified): the TGI in [1] is 17.5 µM; in assay [10] it was 10.6 µM; in [2], 19.5 µM; in assay [3], above 24.8 µM; in assay [4], 15.9 µM; in [5], 10.8 µM. Besides, the TGI in assay [6] stood at 31.2 µM; in assay [7] it was 15.5 µM; in assay [8], 18.9 µM; in [9] it was 9.27 µM.

Consider `CCN1CCC(O)(/C=C/c2ccc(C)cc2C)C(C(=O)/C=C/c2ccc(C)cc2C)C1` (stereo unspecified), for which the concentration for total growth inhibition (TGI) in assay [1] worked out at 24.4 µM; in assay [10], 3.37 µM; in assay [2] it was 11.5 µM; in assay [3], 7.8 µM; in [4], 8.52 µM; in assay [5], 35.7 µM. In addition, the TGI in assay [6] is above 26 µM; in assay [7], 9.12 µM; in assay [8], 4.32 µM.

Regarding `Nc1nc(Cl)cc(NCC2(CO)CCCC2)n1`, the TGI in assay [1], in assay [10], in assay [2], in assay [3], in assay [4] and in assay [5] was above 100 µM in each case. For the same compound, the TGI in [6], in assay [7], in assay [8] and in assay [9] was above 100 µM throughout.

Consider `COc1ccc2c(cnc3c4cc(OC)c(OC)cc4ccc23)c1`, for which the TGI in assay [1], in assay [10], in assay [2], in assay [3], in [4] and in assay [5] was above 100 µM each time. The TGI in assay [6], in [7], in assay [8] and in assay [9] was above 100 µM throughout.

For the compound `O=C(O)c1ccc(OCc2nc3cc(C(F)(F)F)ccc3nc2-c2ccccc2)cc1`, the TGI in assay [1], in assay [10], in [2], in assay [3], in assay [4] and in [5] was above 100 µM throughout. In addition, the TGI in [6], in assay [7], in assay [8] and in assay [9] was above 100 µM each time.

With `C=CC[C@]12C=C(OC)[C@@H](O)[C@](OC)(C(c3cc(OC)c4c(c3)OCO4)[C@H]1C)[C@H]2OC(C)=O` (stereo partly specified), the TGI in assay [1], in assay [10], in [2], in assay [3], in [4] and in [5] was above 100 µM in each case. The TGI in [6], in [7], in [8] and in assay [9] was above 100 µM in each case.

With `N#CC1=C(N)N(c2ccccc2)C(c2ccccc2)C1(C#N)C#N` (stereo unspecified), the TGI in assay [1] was determined as 31.7 µM; in assay [10], 30.2 µM; in [2], 34.9 µM; in assay [3], 33.7 µM; in assay [4], 37 µM; in assay [5], 44.9 µM. In addition, the TGI stood at 43.8 µM in [6], 55.4 µM in assay [7], 29.8 µM in assay [8] and 29.4 µM in assay [9].

As for `CC(C)(Cl)C(Br)CCC(=CCCl)CBr` (mixture of isomers), the TGI in assay [1] is 2.62 µM; in [10] it was 4.22 µM; in assay [2] it was 6.81 µM; in [3] it was above 21.1 µM; in [4], 6.24 µM; in [5] it was 4.05 µM. Besides, the TGI was determined as 36.1 µM in assay [6], 4.21 µM in [7], 3.5 µM in [8] and 3.67 µM in assay [9].

Regarding `CC1CCCC(CC(=O)O)(CC(=O)O)C1` (stereo unspecified), the TGI in assay [1], in assay [10], in assay [2], in [3], in assay [4] and in assay [5] was above 100 µM each time. The TGI in assay [6], in assay [7], in assay [8] and in [9] was above 100 µM throughout.

Regarding `C=CCOc1ccc(C2C(C(=O)OCC)C(=O)CC(C)(O)C2C(=O)OCC)cc1OC` (stereo unspecified), the TGI in [1], in [10], in assay [2], in assay [3], in assay [4] and in assay [5] was above 100 µM in each case. Besides, the TGI in assay [6], in assay [7], in [8] and in assay [9] was above 100 µM each time.

Regarding `CC(C)NC(=O)OCCN=c1c2ccccc2ccc2ccccc12`, the TGI was above 100 µM in [1]; above 100 µM in assay [10]; above 100 µM in assay [2]; 62.5 µM in [3]; above 100 µM in assay [4]; above 100 µM in assay [5]. Besides, the TGI in [6], in assay [7], in assay [8] and in assay [9] was above 100 µM each time.

`C#C[C@]1(O)CC[C@H]2[C@@H]3CCC4=C/C(=N/OC(=O)c5cccc6c(=O)c7ccccc7[nH]c56)CC[C@@H]4[C@H]3CC[C@@]21C`: the TGI in assay [1] was above 100 µM; in assay [10] it was above 100 µM; in assay [2], above 100 µM; in assay [3], 39.1 µM; in assay [4], above 100 µM; in [5], above 100 µM. For the same compound, the TGI in assay [6], in assay [7], in [8] and in assay [9] was above 100 µM each time.

For `N#Cc1c(Cl)cc(Cl)n2c1nc1ccccc12`, the TGI in [1] is 24 µM; in [10], 8.44 µM; in assay [2], 25.1 µM; in [3], above 100 µM; in [4] it was 15.5 µM; in assay [5], 24.5 µM. The TGI was determined as 67.6 µM in [6], 40.1 µM in assay [7], 14.2 µM in assay [8] and 29.8 µM in [9].

On to `CCOC(=O)NC(Nc1ccc([N+](=O)[O-])cc1)(C(F)(F)F)C(F)(F)F`, for which the TGI in assay [1], in assay [10], in assay [2], in assay [3], in [4] and in [5] was above 100 µM in each case. Also, the TGI in [6], in assay [7], in assay [8] and in [9] was above 100 µM throughout.

Turning to `CC(C)(C)C(=O)CC1=Nc2ccccc2SC1(O)CC(=O)C(C)(C)C` (stereo unspecified), the TGI in [1] is 61.2 µM; in [10], 40.5 µM; in assay [2] it was above 100 µM; in assay [3], 32.2 µM; in assay [4], 51.1 µM; in [5], 81.9 µM. The TGI turned out to be 59.6 µM in [6], 81.1 µM in assay [7], 36.2 µM in [8] and 53.7 µM in assay [9].

Take `COc1cccc(/C=N/n2c(C)n[nH]c2=O)c1`: the TGI in assay [1], in assay [10], in assay [2], in assay [3], in assay [4] and in assay [5] was above 100 µM throughout. The TGI in assay [6], in assay [7], in assay [8] and in [9] was above 100 µM throughout.

With `CSc1cnc2ccccc2c1SC1CN(Cc2ccccc2)c2ccccc2C1=O` (stereo unspecified), the TGI in assay [1], in [10], in assay [2], in [3], in assay [4] and in assay [5] was above 100 µM in each case. Besides, the TGI in assay [6], in assay [7], in assay [8] and in [9] was above 100 µM in each case.

For `C=C(Cl)C(C)(Cl)CCC(Br)C(C)(C)Cl` (stereo unspecified), the TGI in [1] worked out at 30.8 µM; in assay [10], 34.2 µM; in assay [2] it was 30.5 µM; in assay [3], 67.2 µM; in assay [4], 47.2 µM; in [5], 34.7 µM. The TGI is above 100 µM in assay [6], above 100 µM in assay [7], 28.7 µM in [8] and 29.5 µM in assay [9].

Take `Nc1ccc(C(=O)N2CCC[C@H]2CO)c(N)c1`: the total growth inhibition concentration (TGI) in [1], in [10], in assay [2], in assay [3], in [4] and in [5] was above 100 µM throughout. Besides, the TGI in assay [6], in assay [7], in assay [8] and in assay [9] was above 100 µM throughout.

As to `CCOC(=O)C1C2CCC1CC(=NNc1ccc([N+](=O)[O-])cc1[N+](=O)[O-])C2` (stereo unspecified), the concentration for total growth inhibition (TGI) in [1], in assay [10], in assay [2], in [3], in [4] and in assay [5] was above 50 µM in each case. In addition, the TGI in assay [6], in assay [7], in [8] and in [9] was above 50 µM in each case.

In the case of `CC(C(O)Cc1ccccc1)N(C)N=Nc1ccc([N+](=O)[O-])cc1` (stereo unspecified), the concentration for total growth inhibition (TGI) in [1] was 80.6 µM; in assay [10] it was 32.2 µM; in [2] it was 45.4 µM; in assay [3] it was above 100 µM; in [4] it was 40.4 µM; in [5] it was 33.1 µM. In addition, the TGI in assay [6] came to 73.2 µM; in [7] it was 47.3 µM; in [8], 33.7 µM; in assay [9], 30.2 µM.

Take `CC1=C(CO)C(=O)O[C@@H]([C@@H](CO)[C@H]2CCC3C4C[C@@H](O)[C@@]5(O)CC=CC(=O)[C@]5(C)C4CC[C@@]32C)C1` (stereo partly specified): the TGI in assay [1], in assay [10], in [2], in [3], in [4] and in [5] was above 100 µM each time. Further, the TGI in assay [6], in assay [7], in assay [8] and in assay [9] was above 100 µM each time.

Regarding `S=C(Nc1ccc2c(c1)oc1ccccc12)c1cccnc1`, the TGI in [1], in [10], in [3], in [4], in assay [5] and in assay [6] was above 100 µM each time. For the same compound, the TGI in assay [7] is 87.4 µM; in assay [8], above 100 µM; in assay [9], above 100 µM.

For the origin of these results see PubChem BioAssay (NCI).
